Tests used:
[1] = target: Phosphatidylinositol 5-phosphate 4-kinase type-2 gamma (Homo sapiens) (UniProt Q8TBX8); test: PIP5K2C DiscoveRx kinase panel; details: Compound concentration 1.0 uM
[2] = target: Gamma-aminobutyric acid type B receptor subunit 1 (Homo sapiens) (UniProt Q9UBS5); test: Inhibition of GABAB1A at compound concentration of 10.0 uM in the Eurofins-Panlabs radioligand binding assay (Eurofins_assay_228610); set-up: ligand concentration 4 nM; details: Compound concentration 10.0 uM
Sequence of Gamma-aminobutyric acid type B receptor subunit 1 (Homo sapiens) (Q9UBS5 whole entry): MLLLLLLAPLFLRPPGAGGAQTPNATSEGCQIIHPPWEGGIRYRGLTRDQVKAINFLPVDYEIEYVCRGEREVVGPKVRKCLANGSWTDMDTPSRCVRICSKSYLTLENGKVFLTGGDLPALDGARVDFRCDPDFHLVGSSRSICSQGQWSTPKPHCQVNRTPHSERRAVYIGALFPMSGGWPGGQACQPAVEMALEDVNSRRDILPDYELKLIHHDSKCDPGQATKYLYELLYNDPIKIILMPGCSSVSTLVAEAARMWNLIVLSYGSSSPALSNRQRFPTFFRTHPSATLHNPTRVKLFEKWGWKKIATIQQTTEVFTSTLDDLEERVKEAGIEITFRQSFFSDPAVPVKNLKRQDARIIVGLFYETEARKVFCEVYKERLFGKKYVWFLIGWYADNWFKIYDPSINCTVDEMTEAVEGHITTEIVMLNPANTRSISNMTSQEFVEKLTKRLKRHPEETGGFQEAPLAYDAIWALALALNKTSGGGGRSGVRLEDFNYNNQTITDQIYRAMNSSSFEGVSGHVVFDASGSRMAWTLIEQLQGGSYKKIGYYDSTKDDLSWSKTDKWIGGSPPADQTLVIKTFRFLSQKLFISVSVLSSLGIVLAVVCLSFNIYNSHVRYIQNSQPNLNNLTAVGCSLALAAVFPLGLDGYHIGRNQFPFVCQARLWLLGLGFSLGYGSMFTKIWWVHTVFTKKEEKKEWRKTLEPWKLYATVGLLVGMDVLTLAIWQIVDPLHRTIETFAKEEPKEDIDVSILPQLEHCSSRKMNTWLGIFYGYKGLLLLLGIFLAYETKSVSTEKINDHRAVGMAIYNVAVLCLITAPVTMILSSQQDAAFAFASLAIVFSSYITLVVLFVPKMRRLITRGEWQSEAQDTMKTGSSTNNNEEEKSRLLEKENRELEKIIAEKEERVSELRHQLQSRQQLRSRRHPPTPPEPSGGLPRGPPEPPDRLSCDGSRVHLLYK

hERG (KCNH2) = hERG (KCNH2) (Homo sapiens, UniProt Q12809); test: Inhibition of Potassium Channel hERG at 10 µM in the Eurofins-Panlabs radioligand binding assay (Eurofins_assay_265900); set-up: ligand concentration 1.5 nM, non-specific ligand with concentration Astemizole, incubation time 60 min, incubation temperature 25 °C; details: HEK-293 cells expressing human recombinant hERG, probe [3H] Astemizole, compound concentration 10 uM
Homo sapiens = species on record: Homo sapiens; test: Chemokine CCR1 Eurofins-Panlabs radioligand binding assay; set-up: ligand concentration 0.1 nM; details: Compound concentration 10.0 uM
[3] = target: D(2) dopamine receptor (Homo sapiens) (UniProt P14416); details: Compound concentration 10.0 uM
[4] = target: Serine/threonine-protein kinase PAK 4 (Homo sapiens) (UniProt O96013); test: PAK4 DiscoveRx kinase panel; details: Compound concentration 1.0 uM
[5] = target: Serine/threonine-protein kinase RIO1 (Homo sapiens) (UniProt Q9BRS2); test: RIOK1 DiscoveRx kinase panel; details: Compound concentration 1.0 uM
[6] = target: Serine/threonine-protein kinase PAK 1 (Homo sapiens) (UniProt Q13153); test: PAK1 DiscoveRx kinase panel; details: Compound concentration 1.0 uM
[7] = target: Phosphatidylinositol 4,5-bisphosphate 3-kinase catalytic subunit gamma isoform (Homo sapiens) (UniProt P48736); test: PIK3CG DiscoveRx kinase panel; details: Compound concentration 1.0 uM
[8] = target: Ephrin type-B receptor 4 (Homo sapiens) (UniProt P54760); test: EPHB4 DiscoveRx kinase panel; details: Compound concentration 1.0 uM
[9] = target: Leukocyte tyrosine kinase receptor (Homo sapiens) (UniProt P29376); test: LTK DiscoveRx kinase panel; details: Compound concentration 1.0 uM
[10] = target: Tyrosine-protein kinase receptor TYRO3 (Homo sapiens) (UniProt Q06418); test: TYRO3 DiscoveRx kinase panel; details: Compound concentration 1.0 uM
[11] = target: Serine/threonine-protein kinase Chk1 (Homo sapiens) (UniProt O14757); test: CHEK1 DiscoveRx kinase panel; details: Compound concentration 1.0 uM
Sequence of Serine/threonine-protein kinase Chk1 (Homo sapiens) (O14757 whole entry): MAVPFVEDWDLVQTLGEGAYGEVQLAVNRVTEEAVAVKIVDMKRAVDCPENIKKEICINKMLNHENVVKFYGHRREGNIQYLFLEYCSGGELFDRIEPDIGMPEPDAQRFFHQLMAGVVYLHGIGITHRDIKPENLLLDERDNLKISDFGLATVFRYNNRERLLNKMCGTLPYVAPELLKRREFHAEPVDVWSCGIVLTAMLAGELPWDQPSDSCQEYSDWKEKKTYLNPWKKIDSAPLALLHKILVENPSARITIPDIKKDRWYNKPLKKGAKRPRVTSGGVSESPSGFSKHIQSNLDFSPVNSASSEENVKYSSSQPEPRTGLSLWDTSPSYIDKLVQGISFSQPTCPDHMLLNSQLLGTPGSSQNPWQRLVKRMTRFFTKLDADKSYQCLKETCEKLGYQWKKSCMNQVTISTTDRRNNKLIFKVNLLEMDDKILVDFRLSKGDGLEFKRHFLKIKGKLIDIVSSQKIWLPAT

[12] = target: Serine/threonine-protein kinase TAO1 (Homo sapiens) (UniProt Q7L7X3); test: TAOK1 DiscoveRx kinase panel; details: Compound concentration 1.0 uM
[13] = target: ALK tyrosine kinase receptor (Homo sapiens) (UniProt Q9UM73); test: ALK DiscoveRx kinase panel; details: Compound concentration 1.0 uM
[14] = target: Dual specificity tyrosine-phosphorylation-regulated kinase 1B (Homo sapiens, UniProt Q9Y463); test: DYRK1B DiscoveRx kinase panel
[15] = target: Serine/threonine-protein kinase 38 (Homo sapiens) (UniProt Q15208); test: NDR1 DiscoveRx kinase panel; details: Compound concentration 1.0 uM
Sequence of Serine/threonine-protein kinase 38 (Homo sapiens) (Q15208 2-465 limits assumed): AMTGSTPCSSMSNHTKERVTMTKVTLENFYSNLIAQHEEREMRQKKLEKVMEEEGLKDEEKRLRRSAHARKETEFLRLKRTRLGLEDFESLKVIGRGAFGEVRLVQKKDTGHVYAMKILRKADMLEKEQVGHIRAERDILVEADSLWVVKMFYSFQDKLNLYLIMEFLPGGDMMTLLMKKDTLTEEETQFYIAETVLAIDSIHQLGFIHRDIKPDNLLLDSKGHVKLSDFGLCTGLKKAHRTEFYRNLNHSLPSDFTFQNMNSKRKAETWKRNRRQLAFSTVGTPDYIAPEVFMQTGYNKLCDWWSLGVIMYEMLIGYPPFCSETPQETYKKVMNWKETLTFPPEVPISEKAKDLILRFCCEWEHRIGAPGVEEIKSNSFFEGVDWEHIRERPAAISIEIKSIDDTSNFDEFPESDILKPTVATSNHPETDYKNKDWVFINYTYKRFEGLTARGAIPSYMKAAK

[16] = target: Membrane-associated tyrosine- and threonine-specific cdc2-inhibitory kinase (Homo sapiens) (UniProt Q99640); test: PKMYT1 DiscoveRx kinase panel; details: Compound concentration 1.0 uM
[17] = target: Serine/threonine-protein kinase LATS1 (Homo sapiens) (UniProt O95835); test: LATS1 DiscoveRx kinase panel; details: Compound concentration 1.0 uM
[18] = target: Muscarinic acetylcholine receptor M3 (Homo sapiens) (UniProt P20309); details: Compound concentration 10.0 uM
[19] = target: Tyrosine-protein kinase receptor UFO (Homo sapiens) (UniProt P30530); test: AXL DiscoveRx kinase panel; details: Compound concentration 1.0 uM
Sequence of Tyrosine-protein kinase receptor UFO (Homo sapiens) (P30530 whole entry): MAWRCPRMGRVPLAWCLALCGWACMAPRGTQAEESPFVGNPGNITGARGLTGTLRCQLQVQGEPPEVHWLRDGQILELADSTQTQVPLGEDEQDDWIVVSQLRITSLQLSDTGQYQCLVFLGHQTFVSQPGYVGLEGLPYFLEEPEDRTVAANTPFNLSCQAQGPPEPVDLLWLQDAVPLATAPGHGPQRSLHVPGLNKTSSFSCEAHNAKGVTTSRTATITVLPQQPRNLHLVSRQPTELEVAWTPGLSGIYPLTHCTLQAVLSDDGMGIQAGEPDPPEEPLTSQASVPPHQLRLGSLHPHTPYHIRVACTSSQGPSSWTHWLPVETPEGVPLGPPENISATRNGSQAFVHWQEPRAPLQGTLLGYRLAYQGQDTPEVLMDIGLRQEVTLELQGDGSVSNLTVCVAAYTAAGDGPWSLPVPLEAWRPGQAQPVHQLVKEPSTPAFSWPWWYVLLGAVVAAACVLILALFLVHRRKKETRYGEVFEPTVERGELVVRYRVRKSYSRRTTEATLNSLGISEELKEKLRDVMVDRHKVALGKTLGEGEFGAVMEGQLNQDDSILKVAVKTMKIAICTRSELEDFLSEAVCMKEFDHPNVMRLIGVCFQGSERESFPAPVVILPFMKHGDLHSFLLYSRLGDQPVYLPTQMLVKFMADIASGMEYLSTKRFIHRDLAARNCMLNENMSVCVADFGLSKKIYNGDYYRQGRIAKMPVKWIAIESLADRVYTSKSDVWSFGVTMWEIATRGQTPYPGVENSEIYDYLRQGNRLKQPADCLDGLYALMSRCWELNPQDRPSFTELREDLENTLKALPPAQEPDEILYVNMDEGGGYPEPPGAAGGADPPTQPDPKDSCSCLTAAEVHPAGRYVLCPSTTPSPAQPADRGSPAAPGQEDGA

[20] = target: Mitogen-activated protein kinase kinase kinase 3 (Homo sapiens) (UniProt Q99759); test: MAP3K3 DiscoveRx kinase panel; details: Compound concentration 1.0 uM
[21] = target: Ribosomal protein S6 kinase alpha-1 (Homo sapiens) (UniProt Q15418); test: RSK1(Kin.Dom.1-N-terminal) DiscoveRx kinase panel; details: Compound concentration 1.0 uM
Sequence of Ribosomal protein S6 kinase alpha-1 (Homo sapiens) (Q15418 whole entry): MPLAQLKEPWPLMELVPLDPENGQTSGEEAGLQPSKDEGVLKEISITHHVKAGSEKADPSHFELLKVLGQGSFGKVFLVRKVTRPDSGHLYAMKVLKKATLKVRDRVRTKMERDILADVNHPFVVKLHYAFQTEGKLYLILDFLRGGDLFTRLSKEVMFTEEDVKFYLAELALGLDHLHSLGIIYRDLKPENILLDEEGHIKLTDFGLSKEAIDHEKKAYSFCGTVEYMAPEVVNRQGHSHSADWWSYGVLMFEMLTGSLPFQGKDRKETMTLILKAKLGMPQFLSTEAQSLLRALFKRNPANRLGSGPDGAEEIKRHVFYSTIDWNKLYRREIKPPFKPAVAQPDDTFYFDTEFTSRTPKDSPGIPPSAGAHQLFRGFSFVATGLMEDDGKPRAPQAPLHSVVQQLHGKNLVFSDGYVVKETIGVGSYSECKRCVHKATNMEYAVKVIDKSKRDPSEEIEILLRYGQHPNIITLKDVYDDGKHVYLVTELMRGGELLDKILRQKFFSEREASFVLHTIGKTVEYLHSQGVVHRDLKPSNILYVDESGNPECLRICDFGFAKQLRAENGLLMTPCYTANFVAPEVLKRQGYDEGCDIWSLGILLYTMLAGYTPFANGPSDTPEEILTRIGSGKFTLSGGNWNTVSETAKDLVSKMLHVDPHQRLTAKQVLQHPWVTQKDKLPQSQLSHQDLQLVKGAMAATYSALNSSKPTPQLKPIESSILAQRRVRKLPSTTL

[22] = target: Receptor tyrosine-protein kinase erbB-3 (Homo sapiens) (UniProt P21860); test: ERBB3 DiscoveRx kinase panel; details: Compound concentration 1.0 uM
[23] = target: Fibroblast growth factor receptor 3 (Homo sapiens) (UniProt P22607); test: FGFR3 DiscoveRx kinase panel; details: Compound concentration 1.0 uM
[24] = target: Sodium-dependent dopamine transporter (Homo sapiens, UniProt Q01959); details: Compound concentration 10.0 uM
[25] = target: Cyclin-dependent kinase 13 (Homo sapiens) (UniProt Q14004); test: CDC2L5 DiscoveRx kinase panel; details: Compound concentration 1.0 uM
Sequence of Cyclin-dependent kinase 13 (Homo sapiens) (Q14004 whole entry, looked up): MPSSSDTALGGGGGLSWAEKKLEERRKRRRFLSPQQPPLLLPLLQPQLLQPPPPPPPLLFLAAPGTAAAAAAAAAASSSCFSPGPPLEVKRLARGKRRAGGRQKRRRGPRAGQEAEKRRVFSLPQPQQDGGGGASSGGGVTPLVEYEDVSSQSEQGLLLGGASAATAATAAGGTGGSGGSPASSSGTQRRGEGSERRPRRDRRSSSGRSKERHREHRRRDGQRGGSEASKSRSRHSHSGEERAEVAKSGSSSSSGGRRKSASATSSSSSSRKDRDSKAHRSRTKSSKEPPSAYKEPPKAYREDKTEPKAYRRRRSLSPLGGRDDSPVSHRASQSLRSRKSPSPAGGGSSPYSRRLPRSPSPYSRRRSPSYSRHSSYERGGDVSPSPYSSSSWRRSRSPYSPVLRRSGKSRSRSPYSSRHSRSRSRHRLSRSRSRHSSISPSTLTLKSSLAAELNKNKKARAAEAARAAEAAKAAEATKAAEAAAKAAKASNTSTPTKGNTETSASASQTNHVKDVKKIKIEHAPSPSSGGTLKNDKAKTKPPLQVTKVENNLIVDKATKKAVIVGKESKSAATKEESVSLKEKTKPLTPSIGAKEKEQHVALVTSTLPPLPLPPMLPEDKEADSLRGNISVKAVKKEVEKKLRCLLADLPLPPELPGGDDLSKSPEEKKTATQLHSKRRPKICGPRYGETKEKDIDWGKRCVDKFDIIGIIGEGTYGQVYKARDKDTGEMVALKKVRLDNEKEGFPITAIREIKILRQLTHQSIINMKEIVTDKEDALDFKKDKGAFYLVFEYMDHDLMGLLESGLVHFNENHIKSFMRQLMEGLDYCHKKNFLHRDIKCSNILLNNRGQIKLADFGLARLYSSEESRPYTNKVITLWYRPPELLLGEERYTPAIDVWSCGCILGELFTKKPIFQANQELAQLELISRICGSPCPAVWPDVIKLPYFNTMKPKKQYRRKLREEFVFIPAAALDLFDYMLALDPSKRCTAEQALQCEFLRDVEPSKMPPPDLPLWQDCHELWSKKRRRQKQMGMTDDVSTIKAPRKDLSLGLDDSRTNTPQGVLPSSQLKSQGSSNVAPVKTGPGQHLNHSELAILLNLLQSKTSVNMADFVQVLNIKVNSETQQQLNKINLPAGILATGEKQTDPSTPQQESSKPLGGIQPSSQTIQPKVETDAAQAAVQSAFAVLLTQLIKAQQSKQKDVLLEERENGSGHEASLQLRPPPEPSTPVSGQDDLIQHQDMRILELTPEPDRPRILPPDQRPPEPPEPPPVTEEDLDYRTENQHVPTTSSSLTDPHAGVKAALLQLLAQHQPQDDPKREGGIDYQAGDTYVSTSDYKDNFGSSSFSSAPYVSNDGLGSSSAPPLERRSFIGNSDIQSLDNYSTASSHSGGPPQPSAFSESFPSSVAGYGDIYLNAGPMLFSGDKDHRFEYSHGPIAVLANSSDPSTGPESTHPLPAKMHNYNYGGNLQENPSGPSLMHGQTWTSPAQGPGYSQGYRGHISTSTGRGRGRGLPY

[26] = target: Serine/threonine-protein kinase pim-2 (Homo sapiens) (UniProt Q9P1W9); test: PIM2 DiscoveRx kinase panel; details: Compound concentration 1.0 uM
[27] = target: Serine/threonine-protein kinase DCLK2 (Homo sapiens) (UniProt Q8N568); test: DCAMKL2 DiscoveRx kinase panel; details: Compound concentration 1.0 uM
[28] = target: Tyrosine-protein kinase Yes (Homo sapiens) (UniProt P07947); test: YES DiscoveRx kinase panel; details: Compound concentration 1.0 uM
[29] = target: 5-hydroxytryptamine receptor 5A (Homo sapiens) (UniProt P47898); details: Compound concentration 10.0 uM
[30] = target: Death-associated protein kinase 3 (Homo sapiens) (UniProt O43293); test: DAPK3 DiscoveRx kinase panel; details: Compound concentration 1.0 uM
[31] = target: cGMP-dependent protein kinase 1 (Homo sapiens) (UniProt Q13976); test: PRKG1 DiscoveRx kinase panel; details: Compound concentration 1.0 uM
MAO-B = MAO-B (Homo sapiens, UniProt P27338); test: Inhibition of Monoamine Oxidase MAO-B at compound concentration of 10.0 uM in the Eurofins-Panlabs enzyme assay (Eurofins_assay_140120); set-up: substrate with concentration 50 uM Kynuramine, incubation time 60 min, incubation temperature 37 C; details: human recombinant MAO-B expressed in insect Hi5 cells, probe Kynuramine (50 uM), compound concentration 10 uM
[32] = target: Serine/threonine-protein kinase 36 (Homo sapiens) (UniProt Q9NRP7); test: STK36 DiscoveRx kinase panel; details: Compound concentration 1.0 uM
[33] = target: Ephrin type-A receptor 6 (Homo sapiens) (UniProt Q9UF33); test: EPHA6 DiscoveRx kinase panel; details: Compound concentration 1.0 uM
[34] = target: Cysteinyl leukotriene receptor 1 (Homo sapiens) (UniProt Q9Y271); test: Inhibition of Leukotriene, Cysteinyl CysLT1 at 10 µM in the Eurofins-Panlabs radioligand binding assay (Eurofins_assay_250460); set-up: ligand concentration 0.3 nM, non-specific ligand with concentration 0.3 µM Leukotriene D4, incubation time 30 min, incubation temperature 25 °C; details: Compound concentration 10.0 uM
[35] = target: Tyrosine-protein kinase Srms (Homo sapiens) (UniProt Q9H3Y6); test: SRMS DiscoveRx kinase panel; details: Compound concentration 1.0 uM
[36] = target: Dual specificity testis-specific protein kinase 1 (Homo sapiens) (UniProt Q15569); test: TESK1 DiscoveRx kinase panel; details: Compound concentration 1.0 uM
[37] = target: Myosin light chain kinase family member 4 (Homo sapiens) (UniProt Q86YV6); test: MYLK4 DiscoveRx kinase panel; details: Compound concentration 1.0 uM
[38] = target: Receptor tyrosine-protein kinase erbB-2 (Homo sapiens) (UniProt P04626); test: ERBB2 DiscoveRx kinase panel; details: Compound concentration 1.0 uM
[39] = target: NUAK family SNF1-like kinase 2 (Homo sapiens) (UniProt Q9H093); test: SNARK DiscoveRx kinase panel; details: Compound concentration 1.0 uM
[40] = target: Serine/threonine-protein kinase mTOR (Homo sapiens) (UniProt P42345); test: MTOR DiscoveRx kinase panel; details: Compound concentration 1.0 uM
[41] = target: Serine/threonine-protein kinase B-raf (Homo sapiens) (UniProt P15056); test: BRAF DiscoveRx kinase panel; details: Compound concentration 1.0 uM
[42] = target: 5-hydroxytryptamine receptor 1A (Homo sapiens) (UniProt P08908); test: Serotonin (5-Hydroxytryptamine) 5-HT1A Eurofins-Panlabs radioligand binding assay; details: Compound concentration 10.0 uM
[43] = target: Tyrosine-protein kinase JAK3 (Homo sapiens) (UniProt P52333); test: JAK3(JH1domain-catalytic) DiscoveRx kinase panel; details: Compound concentration 1.0 uM

COc1cnccc1Nc1nc(-c2nn(Cc3c(F)cc(OCCO)cc3F)c3ccccc23)ncc1OC
residual activity [1]: 100%
inhibition [2]: -2%
inhibition at 60 min, 10 µM (hERG (KCNH2)): 23% (not active)
inhibition (Homo sapiens): -4%
inhibition [3]: 3.66%
residual activity [4]: 82%
residual activity [5]: 79%
residual activity [6]: 100%
residual activity [7]: 80%
residual activity [8]: 93%
residual activity [9]: 100%
residual activity [10]: 56%
residual activity [11]: 93%
residual activity [12]: 100%
residual activity [13]: 100%
Kd [14]: > 30 µM
residual activity ([14]; Compound concentration 1.0 uM): 6.7%
residual activity [15]: 98%
residual activity [16]: 100%
residual activity [17]: 95%
inhibition [18]: -5%
residual activity [19]: 47%
residual activity [20]: 95%
residual activity [21]: 80%
residual activity [22]: 70%
residual activity [23]: 100%
inhibition [24]: -5%
residual activity [25]: 100%
residual activity [26]: 100%
residual activity [27]: 90%
residual activity [28]: 100%
inhibition [29]: -6.97%
residual activity [30]: 84%
residual activity [31]: 74%
inhibition at 60 min, 10 µM (MAO-B): -15% (not active)
residual activity [32]: 68%
residual activity [33]: 89%
inhibition [34]: 32%
residual activity [35]: 100%
residual activity [36]: 57%
residual activity [37]: 100%
residual activity [38]: 100%
residual activity [39]: 99%
residual activity [40]: 100%
residual activity [41]: 99%
inhibition [42]: 0%
residual activity [43]: 87%

Source: ChEMBL document CHEMBL5058649, “Data for DCP probe BAY 1816032” (2022)
